Data: US20240140986A1, “SYNTHETIC URSOLIC ACID DERIVATIVES AND METHODS OF USE THEREOF” (REATA PHARMACEUTICALS, INC., priority 2021, published 2024)
Read-outs that look alike come from different tables or passages of the source.

Tests used:
[1] = system: IFNγ-induced NO production in RAW 264.7 cells; experiment: Nitric Oxide Suppression Assay (IFNγ-induced NO, Griess nitrite readout); assay type: cell-based, mouse; settings: for IC50: Mus musculus; for Avg NO IC50 Relative to RTA402 (fold): Table 2, ratio to RTA402
Method in brief: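 RAW 264.7 mouse macrophages in RPMI 1640 with 0.5% FBS were pretreated 2 h with compound (0.1% DMSO final), then stimulated with 20 ng/mL IFNγ for 24 h at 37° C. Supernatant nitrite was read by Griess absorbance at 525 nm against a nitrite standard curve, normalized to DMSO-IFNγ wells; IC50 from curve fit. Viability by WST-1.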

[2] = system: Nrf2 / ARE-dependent luciferase in AREc32 reporter cell line; experiment: AREc32 luciferase reporter activation (Nrf2 induction); assay type: cell-based, human; settings: for EC (2-fold): Homo sapiens, Arec32; for Relative Avg AREc32 EC2X Relative to RTA402 (fold): ratio to RTA402
Method in brief: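 EC2X is the concentration raising luminescence 2-fold above DMSO-treated cells, from a nonlinear-regression dose–response fit. Compounds (0.03–1000 nM) were applied for nineteen hours, starting one day after seeding 20,000 reporter cells per well. Luciferase was read with One-Glo reagent.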

[3] = RAW264.7, Table 3, oleanolic acid derivative analogs, read-out: Avg NO IC50
[4] = Table 3, oleanolic acid derivative analogs, read-out: Avg ARE EC-2X
[5] = RAW264.7, Table 2, RAW 264.7 cells, 2 h pretreatment, 20 ng/mL interferon gamma 24 h, read-out: Avg NO IC50 (nM) (Mean ± SD)
[6] = RAW264.7, Table 3, ursolic acid derivatives, read-out: Avg NO IC50 (nM) (Mean ± SD)
[7] = Table 2, concentration increasing luminescence 2-fold above vehicle, 19 h treatment, read-out: Avg AREc32 EC2X (nM) (Mean ± SD)
[8] = Table 3, ursolic acid derivatives, read-out: Avg ARE EC-2X (nM) (Mean ± SD)

SMILES	IC50 [1, 3] [nM]	EC (2-fold) [2, 4] [nM]	IC50 [1, 5] [nM]	IC50 [1, 6] [nM]	Avg NO IC50 Relative to RTA402 (fold) [1] [fold]	EC (2-fold) [2, 7] [nM]	EC (2-fold) [2, 8] [nM]	Relative Avg AREc32 EC2X Relative to RTA402 (fold) ([2]; Table 2)
CC1(C)CC[C@]2(N3CCC3=O)CC[C@]3(C)[C@H](C(=O)C=C4[C@@]5(C)C=C(C#N)C(=O)C(C)(C)[C@@H]5CC[C@]43C)[C@@H]2C1 [CC74, reference compound]	4.3	36.1						
C[C@@H]1[C@H]2[C@H]3C(=O)C=C4[C@@]5(C)C=C(C#N)C(=O)C(C)(C)[C@@H]5CC[C@@]4(C)[C@]3(C)CC[C@@]2(CNC(=O)OC(C)(C)C)CC[C@H]1C [Compound T20]			12.9 ± 4.6	12.9 ± 4.6	3.72 ± 0.60	21.5 ± 4.6	21.5 ± 4.6	1.83 ± 0.41
C[C@@H]1[C@H]2[C@H]3C(=O)C=C4[C@@]5(C)C=C(C#N)C(=O)C(C)(C)[C@@H]5CC[C@@]4(C)[C@]3(C)CC[C@@]2(n2cc(Br)cn2)CC[C@H]1C [Compound T63]			58.4 ± 9.1		23.3 ± 10.3	76 ± 9.6		6.8 ± 1.1
C[C@@H]1[C@H]2[C@H]3C(=O)C=C4[C@@]5(C)C=C(C#N)C(=O)C(C)(C)[C@@H]5CC[C@@]4(C)[C@]3(C)CC[C@@]2(CNCCO)CC[C@H]1C [Compound T40]			25.8 ± 9.3	25.8 ± 9.3	9.8 ± 5.7	16.1 ± 1.5	16.1 ± 1.5	1.2 ± 0.2
COC(=O)CC[C@]12CC[C@@H](C)[C@H](C)[C@H]1[C@H]1C(=O)C=C3[C@@]4(C)C=C(C#N)C(=O)C(C)(C)[C@@H]4CC[C@@]3(C)[C@]1(C)CC2 [Compound T76]			14.8 ± 2.8		9.13 ± 1.38	8.7 ± 0.63		1.1 ± 0.3
CC1(C)CC[C@]2(c3nc(CO)no3)CC[C@]3(C)[C@H](C(=O)C=C4[C@@]5(C)C=C(C#N)C(=O)C(C)(C)[C@@H]5CC[C@]43C)[C@@H]2C1 [CC10, reference compound]	2.1	3.39						
C[C@@H]1[C@H]2[C@H]3C(=O)C=C4[C@@]5(C)C=C(C#N)C(=O)C(C)(C)[C@@H]5CC[C@@]4(C)[C@]3(C)CC[C@@]2(n2ccnc2)CC[C@H]1C [Compound T62]			23.4 ± 5.4	23.4 ± 5.4	8.76 ± 3.40	19.7 ± 2	19.7 ± 2	1.55 ± 0.28
COCCc1noc([C@]23CC[C@@H](C)[C@H](C)[C@H]2[C@H]2C(=O)C=C4[C@@]5(C)C=C(C#N)C(=O)C(C)(C)[C@@H]5CC[C@@]4(C)[C@]2(C)CC3)n1 [Compound T7]			3.65 ± 1.87		1.62 ± 0.54	6.16 ± 0.7		0.595 ± 0.079
CCc1noc([C@]23CCC(C)(C)C[C@H]2[C@H]2C(=O)C=C4[C@@]5(C)C=C(C#N)C(=O)C(C)(C)[C@@H]5CC[C@@]4(C)[C@]2(C)CC3)n1 [CC4, reference compound]	5.3	21.4						
C[C@@H]1[C@H]2[C@H]3C(=O)C=C4[C@@]5(C)C=C(C#N)C(=O)C(C)(C)[C@@H]5CC[C@@]4(C)[C@]3(C)CC[C@@]2(NC(=O)C(C)(F)F)CC[C@H]1C [Compound T17]			15 ± 5.8		5.83 ± 1.26	22.9 ± 2.6		1.92 ± 0.74
Cc1noc([C@]23CC[C@@H](C)[C@H](C)[C@H]2[C@H]2C(=O)C=C4[C@@]5(C)C=C(C#N)C(=O)C(C)(C)[C@@H]5CC[C@@]4(C)[C@]2(C)CC3)n1 [Compound T1]			3.76 ± 1.35		2.53 ± 0.74	8.44 ± 1.56		0.744 ± 0.121
CC1(C)CC[C@]2(CN)CC[C@]3(C)[C@H](C(=O)C=C4[C@@]5(C)C=C(C#N)C(=O)C(C)(C)[C@@H]5CC[C@]43C)[C@@H]2C1 [CC21, reference compound]	3.2	15.8						
